What was measured:
[1] = target: T1, GAL-hERRa (human ERRα ligand binding domain fused to GAL4 DNA binding domain) (Homo sapiens, UniProt P11474); assay: GAL4 reporter transactivation assay in CV-1 cells, GAL-hERRa; assay type: cell-based; conditions: for Fold activation, GAL-hERRa + PGC-1a / Fold activation, GAL-hERRa: CV-1; for Fold activation, GAL-hERRa + PGC-1a: reporter 0.42:vector 0.00875:PGC-1a 0.035; for Fold activation, GAL-hERRa: reporter 0.42:vector 0.00875, no PGC-1a
T1 construct: expressed in transfected cells; host or cells: CV-1
T1 sequence (P11474 193-421 limits assumed): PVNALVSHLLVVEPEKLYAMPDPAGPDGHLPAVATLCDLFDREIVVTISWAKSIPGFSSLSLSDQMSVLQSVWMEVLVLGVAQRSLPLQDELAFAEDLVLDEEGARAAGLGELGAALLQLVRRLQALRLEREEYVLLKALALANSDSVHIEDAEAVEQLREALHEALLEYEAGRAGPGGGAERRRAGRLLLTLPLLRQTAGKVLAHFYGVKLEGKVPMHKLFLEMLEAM

[2] = target: T2, HRHN-GAL (yeast GAL4 DNA binding domain without receptor sequences) (Saccharomyces cerevisiae, UniProt P04386); assay: GAL4 reporter transactivation assay in CV-1 cells, control vector without receptor; assay type: cell-based, monkey; conditions: for Fold activation, HRHN-GAL: reporter 0.42:vector 0.00875, no PGC-1a
T2 construct: expressed in transfected cells; host or cells: CV-1

human ERβ = target: T3, human ERβ (Homo sapiens, UniProt Q92731); assay: ERE-TK-luc reporter transactivation assay in CV-1 cells, full-length hERb; assay type: cell-based
T3 construct: Human ERα and ERβ were examined as full-length proteins using an estrogen receptor responsive reporter construct; expressed in transfected cells; host or cells: CV-1
Description: Human ERα and ERβ were examined as full-length proteins using an estrogen receptor responsive reporter construct.
Suitable reporter gene constructs are well known to skilled workers in the fields of biochemistry and molecular biology. […] Other vectors known in the art can be used in the methods of the present invention.
CV-1 cells for the activation assays were grown in Dulbecco's modified Eagle's medium supplemented with 10% resin charcoal-stripped fetal bovine serum, 50 U/ml penicillin G and 50 μg/ml streptomycin sulfate (DMEM-FBS) at 37° C. in 5% CO2. One day prior to transfection, cells were plated to 50-80% confluence using phenol red free DMEM-FBS.

[3] = target: T4, GAL-L-hERRb (human ERRβ ligand binding domain fused to GAL4 DNA binding domain) (Homo sapiens, UniProt O95718); assay: GAL4 reporter transactivation assay in CV-1 cells, GAL-L-hERRb; assay type: cell-based; conditions: for Fold activation, GAL-L-hERRb + PGC-1a / Fold activation, GAL-L-hERRb: CV-1; for Fold activation, GAL-L-hERRb + PGC-1a: reporter 0.42:vector 0.00875:PGC-1a 0.035; for Fold activation, GAL-L-hERRb: reporter 0.42:vector 0.00875, no PGC-1a
T4 construct: expressed in transfected cells; host or cells: CV-1
T4 sequence (O95718 208-432 limits assumed): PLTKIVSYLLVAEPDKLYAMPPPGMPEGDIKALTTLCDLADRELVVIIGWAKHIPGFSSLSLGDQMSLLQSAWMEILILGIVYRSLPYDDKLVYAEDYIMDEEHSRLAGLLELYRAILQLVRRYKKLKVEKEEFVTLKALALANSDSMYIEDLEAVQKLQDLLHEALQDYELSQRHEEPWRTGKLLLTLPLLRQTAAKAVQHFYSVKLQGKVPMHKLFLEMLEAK

[4] = target: T5, GAL-mERRg (mouse ERRγ ligand binding domain fused to GAL4 DNA binding domain) (Mus musculus, UniProt P62509); assay: GAL4 reporter transactivation assay in CV-1 cells, GAL-mERRg; assay type: cell-based; conditions: for Fold activation, GAL-mERRg + PGC-1a / Fold activation, GAL-mERRg: CV-1; for Fold activation, GAL-mERRg + PGC-1a: reporter 0.42:vector 0.00875:PGC-1a 0.035; for Fold activation, GAL-mERRg: reporter 0.42:vector 0.00875, no PGC-1a
T5 construct: expressed in transfected cells; host or cells: CV-1
T5 sequence (P62509 233-457 limits assumed): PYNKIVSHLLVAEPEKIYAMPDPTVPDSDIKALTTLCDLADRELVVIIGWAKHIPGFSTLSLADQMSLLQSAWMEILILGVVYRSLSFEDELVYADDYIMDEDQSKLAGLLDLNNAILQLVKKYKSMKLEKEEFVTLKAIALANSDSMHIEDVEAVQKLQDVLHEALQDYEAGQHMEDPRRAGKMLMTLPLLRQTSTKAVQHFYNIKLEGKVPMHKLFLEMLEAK

T2 sequence (P04386 1-147): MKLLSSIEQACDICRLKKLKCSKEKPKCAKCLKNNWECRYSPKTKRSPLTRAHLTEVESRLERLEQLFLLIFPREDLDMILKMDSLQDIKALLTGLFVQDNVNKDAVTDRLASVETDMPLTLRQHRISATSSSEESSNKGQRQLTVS
T3 sequence (Q92731 whole entry): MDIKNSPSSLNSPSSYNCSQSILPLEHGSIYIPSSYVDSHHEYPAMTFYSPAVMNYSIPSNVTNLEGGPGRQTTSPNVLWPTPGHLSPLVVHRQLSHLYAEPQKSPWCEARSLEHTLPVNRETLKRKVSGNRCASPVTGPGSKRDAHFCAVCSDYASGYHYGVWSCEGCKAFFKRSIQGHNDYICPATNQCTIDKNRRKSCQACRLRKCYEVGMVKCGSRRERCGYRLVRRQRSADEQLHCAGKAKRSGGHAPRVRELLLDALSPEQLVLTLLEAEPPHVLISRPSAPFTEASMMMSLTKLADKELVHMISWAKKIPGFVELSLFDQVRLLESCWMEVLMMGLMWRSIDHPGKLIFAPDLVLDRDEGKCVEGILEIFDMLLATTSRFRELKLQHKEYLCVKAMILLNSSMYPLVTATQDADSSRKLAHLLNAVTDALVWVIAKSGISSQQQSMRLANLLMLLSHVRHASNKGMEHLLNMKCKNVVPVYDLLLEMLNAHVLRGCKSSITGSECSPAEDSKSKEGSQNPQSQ

- Fold activation, GAL-hERRa + PGC-1a ([1]; 1 μM): 1.18 fold
- Fold activation, GAL-hERRa + PGC-1a ([1]; 3 μM (first 3 μM column)): 1.69 fold
- Fold activation, GAL-hERRa + PGC-1a ([1]; 3 μM (second 3 μM column)): 1.55 fold
- Fold activation, GAL-hERRa + PGC-1a ([1]; 10 μM): 2.02 fold
- Fold activation, GAL-hERRa + PGC-1a ([1]; 30 μM): 2.61 fold
- Fold activation, GAL-hERRa ([1]; 1 μM): 1.03 fold
- Fold activation, GAL-hERRa ([1]; 3 μM (first 3 μM column)): 1.41 fold
- Fold activation, GAL-hERRa ([1]; 3 μM (second 3 μM column)): 1.23 fold
- Fold activation, GAL-hERRa ([1]; 10 μM): 1.64 fold
- Fold activation, GAL-hERRa ([1]; 30 μM): 2.41 fold
- Activation of ERRα ([1]; in the presence of PGC-1a): can activate
- Fold activation, HRHN-GAL ([2]; 1 μM): 0.95 fold
- Fold activation, HRHN-GAL ([2]; 3 μM (first 3 μM column)): 1.08 fold
- Fold activation, HRHN-GAL ([2]; 3 μM (second 3 μM column)): 1.25 fold
- Fold activation, HRHN-GAL ([2]; 10 μM): 1.24 fold
- Fold activation, HRHN-GAL ([2]; 30 μM): 1.26 fold
- Fold activation, HRHN-GAL + PGC-1a ([2]; reporter 0.42:vector 0.00875:PGC-1a 0.035, 1 μM): 1.31 fold
- Fold activation, HRHN-GAL + PGC-1a ([2]; reporter 0.42:vector 0.00875:PGC-1a 0.035, 3 μM (first 3 μM column)): 1.05 fold
- Fold activation, HRHN-GAL + PGC-1a ([2]; reporter 0.42:vector 0.00875:PGC-1a 0.035, 3 μM (second 3 μM column)): 1.03 fold
- Fold activation, HRHN-GAL + PGC-1a ([2]; reporter 0.42:vector 0.00875:PGC-1a 0.035, 10 μM): 1.39 fold
- Fold activation, HRHN-GAL + PGC-1a ([2]; reporter 0.42:vector 0.00875:PGC-1a 0.035, 30 μM): 1.11 fold
- Fold Activation, ERE-TK-luc, hERb (human ERβ; Table 7, CV-1, drug conc 30 μM): 1.93 fold
- Activation of ERb (human ERβ; specificity for ERRs): do not activate
- Fold activation, GAL-L-hERRb + PGC-1a ([3]; 1 μM): 1.38 fold
- Fold activation, GAL-L-hERRb + PGC-1a ([3]; 3 μM (first 3 μM column)): 1.79 fold
- Fold activation, GAL-L-hERRb + PGC-1a ([3]; 3 μM (second 3 μM column)): 1.47 fold
- Fold activation, GAL-L-hERRb + PGC-1a ([3]; 10 μM): 1.89 fold
- Fold activation, GAL-L-hERRb + PGC-1a ([3]; 30 μM): 2.45 fold
- Fold activation, GAL-L-hERRb ([3]; 1 μM): 1.29 fold
- Fold activation, GAL-L-hERRb ([3]; 3 μM (first 3 μM column)): 1.25 fold
- Fold activation, GAL-L-hERRb ([3]; 3 μM (second 3 μM column)): 0.98 fold
- Fold activation, GAL-L-hERRb ([3]; 10 μM): 1.33 fold
- Fold activation, GAL-L-hERRb ([3]; 30 μM): 1.36 fold
- Activation of ERRβ ([3]; in the presence of PGC-1a): can activate
- Fold activation, GAL-mERRg + PGC-1a ([4]; 1 μM): 1.16 fold
- Fold activation, GAL-mERRg + PGC-1a ([4]; 3 μM (first 3 μM column)): 1.45 fold
- Fold activation, GAL-mERRg + PGC-1a ([4]; 3 μM (second 3 μM column)): 1.80 fold
- Fold activation, GAL-mERRg + PGC-1a ([4]; 10 μM): 2.70 fold
- Fold activation, GAL-mERRg + PGC-1a ([4]; 30 μM): 2.56 fold
- Fold activation, GAL-mERRg ([4]; 1 μM): 1.39 fold
- Fold activation, GAL-mERRg ([4]; 3 μM (first 3 μM column)): 1.28 fold
- Fold activation, GAL-mERRg ([4]; 3 μM (second 3 μM column)): 1.22 fold
- Fold activation, GAL-mERRg ([4]; 10 μM): 1.36 fold
- Fold activation, GAL-mERRg ([4]; 30 μM): 1.01 fold
- Activation of ERRγ ([4]; in the presence of PGC-1a): can activate
SMILES: Cc1cccc(C=NNC(=O)c2ccc(O)cc2)c1 [DY159, 4-Hydroxy-benzoic acid (3-methyl-benzylidene)-hydrazide]
